Reference: ChEMBL document CHEMBL1201862, “PubChem BioAssay data set” (2004)
Activity calls are given as the source filed them.

How the values were obtained:
[1] = HepG2 cell cytotoxicity, dose response, cytotoxicity control for Shn3 inhibitor project, CellTiter-Glo, cherry-picked (AID 624134); type: functional, cell-based
[2] = human group III sPLA2 inhibitors, dose response, biochemical, QFRET, IC50 (AID 743457);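 further: green fluorescence rise as the enzyme cleaves BODIPY PC-A2 in liposomes; potency for inhibition of the enzyme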
[3] = target: Glutathione-S-transferase (Schistosoma japonicum, UniProt Q26513); test: biotin-GST/anti-GST TR-FRET signal inhibitors, dose response, artefact control for Vif-APOBEC3G degradation inhibitor project, biochemical (AID 1117362); type: functional
Glutathione-S-transferase, sequence (Q26513 whole entry): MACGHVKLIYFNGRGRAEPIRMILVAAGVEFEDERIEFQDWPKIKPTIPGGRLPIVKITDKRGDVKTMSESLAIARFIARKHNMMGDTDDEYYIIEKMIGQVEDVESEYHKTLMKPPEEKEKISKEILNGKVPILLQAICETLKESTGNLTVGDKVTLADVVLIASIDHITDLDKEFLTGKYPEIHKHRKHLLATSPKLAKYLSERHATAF

[4] = control 3'UTR Renilla luciferase suppression, dose response, counter-screen for Shn3 inhibitor project, cell-based, Clone20-Shn3RL, cherry-picked (AID 624133); type: functional
[5] = target: Glucose-6-phosphate 1-dehydrogenase (Homo sapiens, UniProt P11413); test: human G6PD enzyme inhibitors, dose response, selectivity assay for P. falciparum G6PD inhibitor project, biochemical, fluorescence (AID 504792); type: functional
Vero = Vero cell cytotoxicity, cytotoxicity control for flavivirus capping enzyme inhibitors (AID 588742); type: functional; conditions: Chlorocebus sabaeus
[6] = Shn3 3'UTR reporter inhibitors, dose response, cell-based, Clone20 osteoblasts, firefly luciferase, cherry-picked (AID 624132); type: functional;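 further: firefly luciferase luminescence from reporter carrying the Shn3 3'UTR in osteoblasts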
[7] = THP-1 cell cytotoxicity, dose response, cytotoxicity control for Vif-APOBEC3G degradation inhibitor project, THP-1 cells (AID 1117359); type: functional; conditions: Human immunodeficiency virus 1, THP-1
Genome polyprotein = Genome polyprotein (dengue virus type 2, UniProt P29990); test: Dengue-2 NS5 methyltransferase inhibitors, primary screen, biochemical, confirmation dose response (AID 588689); type: functional
Genome polyprotein, sequence (P29990 2492-3391 limits assumed): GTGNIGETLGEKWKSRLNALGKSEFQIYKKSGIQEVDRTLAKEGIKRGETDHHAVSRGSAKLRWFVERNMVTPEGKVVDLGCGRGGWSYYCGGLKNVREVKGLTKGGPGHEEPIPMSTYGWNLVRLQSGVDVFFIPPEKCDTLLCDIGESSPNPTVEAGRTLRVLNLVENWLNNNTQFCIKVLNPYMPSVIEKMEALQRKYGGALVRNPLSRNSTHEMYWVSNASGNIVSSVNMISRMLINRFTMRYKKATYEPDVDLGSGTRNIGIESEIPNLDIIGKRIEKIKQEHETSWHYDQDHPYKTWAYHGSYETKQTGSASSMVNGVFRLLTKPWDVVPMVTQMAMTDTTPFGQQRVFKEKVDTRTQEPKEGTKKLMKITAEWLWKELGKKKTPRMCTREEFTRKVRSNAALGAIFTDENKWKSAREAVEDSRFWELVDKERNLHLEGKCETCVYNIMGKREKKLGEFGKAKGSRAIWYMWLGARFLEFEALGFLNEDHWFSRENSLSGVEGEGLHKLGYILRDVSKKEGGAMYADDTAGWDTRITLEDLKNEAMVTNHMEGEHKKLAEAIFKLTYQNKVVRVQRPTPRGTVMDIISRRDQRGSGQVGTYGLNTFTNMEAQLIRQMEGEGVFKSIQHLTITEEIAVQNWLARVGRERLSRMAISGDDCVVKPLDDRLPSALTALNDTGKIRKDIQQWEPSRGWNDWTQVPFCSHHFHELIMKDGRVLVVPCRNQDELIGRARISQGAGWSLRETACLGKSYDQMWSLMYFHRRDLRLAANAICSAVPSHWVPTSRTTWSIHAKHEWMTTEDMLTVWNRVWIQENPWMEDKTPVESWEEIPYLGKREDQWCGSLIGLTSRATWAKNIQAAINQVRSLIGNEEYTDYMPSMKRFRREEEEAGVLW

Nonstructural protein 1 = Nonstructural protein 1 (Influenza A virus, UniProt Q194T2); type: functional, Influenza A virus (A/California/07/2009(H1N1))
Nonstructural protein 1, sequence (Q194T2 whole entry): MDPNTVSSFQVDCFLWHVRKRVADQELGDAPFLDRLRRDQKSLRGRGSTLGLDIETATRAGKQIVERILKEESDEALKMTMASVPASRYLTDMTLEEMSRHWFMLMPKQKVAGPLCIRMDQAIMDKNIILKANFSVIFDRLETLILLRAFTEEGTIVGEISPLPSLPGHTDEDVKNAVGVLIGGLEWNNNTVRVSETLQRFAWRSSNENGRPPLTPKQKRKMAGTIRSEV

Beta-galactosidase = Beta-galactosidase (Escherichia coli, UniProt Q8VNN2); test: beta-galactosidase enzyme inhibitors and activators, dose response, artefact control for CCR6 antagonist project, biochemical, E. coli enzyme, set 3 (AID 504712); type: functional
Beta-galactosidase, sequence (Q8VNN2 whole entry): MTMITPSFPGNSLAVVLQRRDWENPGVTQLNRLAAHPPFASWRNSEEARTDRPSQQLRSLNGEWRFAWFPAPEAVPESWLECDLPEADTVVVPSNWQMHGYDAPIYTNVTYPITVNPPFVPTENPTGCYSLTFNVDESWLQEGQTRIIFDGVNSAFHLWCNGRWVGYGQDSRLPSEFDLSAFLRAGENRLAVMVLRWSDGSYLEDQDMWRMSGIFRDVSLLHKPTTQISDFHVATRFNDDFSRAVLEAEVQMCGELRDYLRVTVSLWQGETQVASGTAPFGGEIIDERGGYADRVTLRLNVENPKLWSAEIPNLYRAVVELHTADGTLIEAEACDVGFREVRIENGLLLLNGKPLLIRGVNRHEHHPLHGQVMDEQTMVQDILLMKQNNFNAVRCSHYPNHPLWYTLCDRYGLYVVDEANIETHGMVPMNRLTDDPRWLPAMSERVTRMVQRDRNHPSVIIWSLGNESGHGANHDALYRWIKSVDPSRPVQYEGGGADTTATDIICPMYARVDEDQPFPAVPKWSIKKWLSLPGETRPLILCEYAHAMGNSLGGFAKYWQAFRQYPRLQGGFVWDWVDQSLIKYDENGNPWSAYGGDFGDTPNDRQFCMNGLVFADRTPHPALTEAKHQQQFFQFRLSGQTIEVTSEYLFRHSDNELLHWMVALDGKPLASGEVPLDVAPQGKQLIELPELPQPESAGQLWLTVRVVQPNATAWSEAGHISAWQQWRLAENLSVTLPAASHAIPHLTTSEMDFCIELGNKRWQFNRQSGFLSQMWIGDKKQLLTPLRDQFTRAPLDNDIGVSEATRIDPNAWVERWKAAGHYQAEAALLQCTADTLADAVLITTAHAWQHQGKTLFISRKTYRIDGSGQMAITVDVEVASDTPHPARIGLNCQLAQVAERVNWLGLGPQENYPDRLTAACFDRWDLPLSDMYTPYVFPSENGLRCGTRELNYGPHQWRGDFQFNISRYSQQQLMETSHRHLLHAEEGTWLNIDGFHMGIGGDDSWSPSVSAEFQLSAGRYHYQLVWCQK

[8] = target: C-C chemokine receptor type 6 (Homo sapiens, UniProt P51684); test: CCR6 receptor antagonists, dose response, cell-based, luminescent beta-arrestin readout (AID 504728); type: functional
C-C chemokine receptor type 6, sequence (P51684 whole entry): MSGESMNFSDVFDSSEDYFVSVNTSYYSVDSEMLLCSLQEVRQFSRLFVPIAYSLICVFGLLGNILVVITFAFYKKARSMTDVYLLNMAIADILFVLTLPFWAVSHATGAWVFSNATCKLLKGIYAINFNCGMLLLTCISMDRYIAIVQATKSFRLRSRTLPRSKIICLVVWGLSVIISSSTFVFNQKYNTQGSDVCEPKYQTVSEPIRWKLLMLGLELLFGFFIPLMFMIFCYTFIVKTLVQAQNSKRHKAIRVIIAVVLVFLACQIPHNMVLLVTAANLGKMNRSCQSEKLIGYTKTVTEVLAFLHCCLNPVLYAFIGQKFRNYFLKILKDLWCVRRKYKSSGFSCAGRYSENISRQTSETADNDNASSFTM

[9] = target: Neuropeptide Y receptor type 2 (Homo sapiens, UniProt P49146); test: NPY-Y2 antagonist potency, selectivity check, dose response, counter-screen for NPY-Y1 antagonist project, cell-based (AID 1278); type: functional
Neuropeptide Y receptor type 2, sequence (P49146 whole entry): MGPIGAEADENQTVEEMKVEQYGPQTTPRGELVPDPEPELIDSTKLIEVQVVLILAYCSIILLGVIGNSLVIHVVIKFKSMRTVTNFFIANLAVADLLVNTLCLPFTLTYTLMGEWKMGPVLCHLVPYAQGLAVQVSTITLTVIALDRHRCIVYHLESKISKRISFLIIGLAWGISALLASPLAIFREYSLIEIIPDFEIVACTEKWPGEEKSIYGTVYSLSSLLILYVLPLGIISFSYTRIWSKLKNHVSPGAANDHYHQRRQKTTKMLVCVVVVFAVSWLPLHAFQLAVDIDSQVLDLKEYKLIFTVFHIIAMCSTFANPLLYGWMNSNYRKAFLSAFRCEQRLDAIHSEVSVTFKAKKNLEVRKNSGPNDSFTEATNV

[10] = target: Neuropeptide Y receptor type 1 (Homo sapiens, UniProt P25929); test: NPY-Y1 receptor antagonist potency, dose response, cell-based (AID 1277); type: functional
Neuropeptide Y receptor type 1, sequence (P25929 whole entry): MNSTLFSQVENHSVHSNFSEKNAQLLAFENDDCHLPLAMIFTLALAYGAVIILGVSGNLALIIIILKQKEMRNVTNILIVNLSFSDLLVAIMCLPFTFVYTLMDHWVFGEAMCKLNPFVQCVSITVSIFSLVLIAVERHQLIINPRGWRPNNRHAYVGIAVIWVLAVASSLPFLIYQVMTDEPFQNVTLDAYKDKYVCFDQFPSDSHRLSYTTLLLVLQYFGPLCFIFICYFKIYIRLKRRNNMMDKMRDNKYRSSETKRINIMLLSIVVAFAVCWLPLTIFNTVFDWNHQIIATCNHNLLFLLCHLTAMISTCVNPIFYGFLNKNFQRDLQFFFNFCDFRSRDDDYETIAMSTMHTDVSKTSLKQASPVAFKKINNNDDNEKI

HeLa = test: HeLa cell cytotoxicity, dose response, cytotoxicity control, 24 h, cherry-picked samples (AID 504726); type: functional, cell-based; conditions: Homo sapiens;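 further: potency for cytotoxicity as loss of luminescence signal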
[11] = Luminescence-based counterscreen assay for KLF5 inhibitors: dose response cell-based high throughput screening assay to identify cytotoxic compounds using the IEC-6 intestinal epithelial cell line. [Related pubchem assays: 1700 (Primary screen.), 1834 (Confirmation screen.), 1858 (Summary AID.), 1905 (Counterscreen.)]; type: functional
[12] = target: Luciferin 4-monooxygenase (Photinus pyralis, UniProt P08659); test: Counter Screen for Luciferase-based Assay Positives. [Related pubchem assays: 620, 618, 411 ]
Luciferin 4-monooxygenase, sequence (P08659 whole entry): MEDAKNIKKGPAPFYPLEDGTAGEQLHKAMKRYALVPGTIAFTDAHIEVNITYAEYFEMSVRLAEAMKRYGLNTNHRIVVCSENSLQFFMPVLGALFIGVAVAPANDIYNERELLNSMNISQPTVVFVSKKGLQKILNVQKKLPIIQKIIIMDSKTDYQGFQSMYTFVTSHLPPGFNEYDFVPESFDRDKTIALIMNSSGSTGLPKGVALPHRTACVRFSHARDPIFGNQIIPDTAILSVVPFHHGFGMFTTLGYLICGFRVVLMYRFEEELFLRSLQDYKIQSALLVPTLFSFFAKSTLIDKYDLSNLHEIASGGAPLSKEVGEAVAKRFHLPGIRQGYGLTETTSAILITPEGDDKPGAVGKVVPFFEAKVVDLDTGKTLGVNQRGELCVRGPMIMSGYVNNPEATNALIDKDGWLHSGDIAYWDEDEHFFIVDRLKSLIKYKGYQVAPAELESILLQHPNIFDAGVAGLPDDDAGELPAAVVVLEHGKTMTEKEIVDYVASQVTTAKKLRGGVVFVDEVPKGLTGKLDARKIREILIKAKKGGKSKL

HT-1080 = test: cytotoxicity in HT1080 fibrosarcoma cells, cell-based, fluorescence readout (AID 620); type: functional; conditions: Homo sapiens
[13] = target: T1, Heat shock factor protein 1 (Mus musculus, UniProt P38532); test: inhibition of MG132-induced HSE-luciferase signal, confirmation, cell-based, NIH3T3, luminescence, dose retest (AID 2382); type: functional;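 further: NIH3T3 fibroblasts with HSF1-driven luciferase reporter stressed by proteasome inhibitor MG132; luminescence from HSF1-driven luciferase expression after 8 hours of MG132 stress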
T1 sequence (P38532 whole entry): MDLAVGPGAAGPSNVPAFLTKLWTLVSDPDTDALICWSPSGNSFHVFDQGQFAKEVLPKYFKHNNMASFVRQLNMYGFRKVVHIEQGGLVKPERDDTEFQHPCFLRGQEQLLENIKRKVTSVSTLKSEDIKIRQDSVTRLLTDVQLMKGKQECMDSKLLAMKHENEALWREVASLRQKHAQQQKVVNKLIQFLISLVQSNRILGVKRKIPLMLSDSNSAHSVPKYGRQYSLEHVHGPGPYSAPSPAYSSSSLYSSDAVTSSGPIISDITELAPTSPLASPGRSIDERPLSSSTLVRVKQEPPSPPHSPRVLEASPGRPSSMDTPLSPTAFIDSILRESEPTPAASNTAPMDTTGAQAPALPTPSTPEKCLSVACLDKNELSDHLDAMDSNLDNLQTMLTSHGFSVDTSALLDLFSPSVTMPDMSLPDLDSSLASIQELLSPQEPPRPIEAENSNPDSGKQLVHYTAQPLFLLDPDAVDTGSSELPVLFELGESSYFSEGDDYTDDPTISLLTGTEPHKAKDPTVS

[14] = target: Sphingosine 1-phosphate receptor 2 (Homo sapiens, UniProt O95136); test: Dose Response Cell Based Assay for Agonists of the S1P2 Receptor of Purchased Analogues. [Related pubchem assays: 729, 843, 854, 736 ]; type: functional
X-box-binding protein 1 = X-box-binding protein 1 (Homo sapiens, UniProt P17861); type: functional, Cricetulus griseus;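 further: confirmatory dose-response counter-screen serving a CHOP assay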
X-box-binding protein 1, sequence (P17861 whole entry): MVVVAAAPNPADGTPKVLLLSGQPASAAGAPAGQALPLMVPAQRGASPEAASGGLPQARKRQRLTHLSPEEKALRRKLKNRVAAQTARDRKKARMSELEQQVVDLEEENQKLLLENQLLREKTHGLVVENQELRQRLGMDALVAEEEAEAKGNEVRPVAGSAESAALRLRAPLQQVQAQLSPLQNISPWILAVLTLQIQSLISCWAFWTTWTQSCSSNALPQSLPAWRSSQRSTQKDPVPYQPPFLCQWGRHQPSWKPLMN

[15] = cytotoxicity toward DRD oncogenic fibroblasts, dose response, cell-based, non-viral oncogenic, luminescence (AID 1934); type: functional; conditions: Homo sapiens
INS1 = test: beta cell apoptosis inhibitors, cytokine rescue, dose response, luminescence, retest (AID 449756); type: functional, cell-based; conditions: Rattus norvegicus;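 further: cell death triggered by IL-1 beta plus TNF-alpha plus IFN-gamma mixture; protective hits raise ATP signal compared with cytokine alone wells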
BJ [16] = test: cytotoxicity toward BJ-TERT-LT-ST fibroblasts, dose response, cell-based, RAS-independent, luminescence (AID 1935); type: functional; conditions: Homo sapiens;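 further: BJ fibroblasts immortalized with TERT plus LT and ST oncogenes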
[17] = A Cell Based Secondary Assay To Explore Cytotoxicity of Compounds that Sensitize Mycobacterium Tuberculosis to Beta-Lactam Antibiotics.; type: functional
BJ [18] = test: cytotoxicity toward BJ-TERT fibroblasts, dose response, cell-based, RAS-independent, luminescence (AID 1933); type: functional; conditions: Homo sapiens
BJ [19] = test: cells; type: functional, cell-based; conditions: Homo sapiens
[20] = target: T2, Short transient receptor potential channel 4 (Mus musculus, UniProt Q9QUQ5); test: mouse TRPC4 channel inhibitors, dose response, cell-based, HEK293 TRPC4/mu-opioid, Fluo-4 calcium (AID 434942); type: functional;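 further: potency of inhibitors blocking the TRPC4 calcium response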
T2 sequence (Q9QUQ5 whole entry): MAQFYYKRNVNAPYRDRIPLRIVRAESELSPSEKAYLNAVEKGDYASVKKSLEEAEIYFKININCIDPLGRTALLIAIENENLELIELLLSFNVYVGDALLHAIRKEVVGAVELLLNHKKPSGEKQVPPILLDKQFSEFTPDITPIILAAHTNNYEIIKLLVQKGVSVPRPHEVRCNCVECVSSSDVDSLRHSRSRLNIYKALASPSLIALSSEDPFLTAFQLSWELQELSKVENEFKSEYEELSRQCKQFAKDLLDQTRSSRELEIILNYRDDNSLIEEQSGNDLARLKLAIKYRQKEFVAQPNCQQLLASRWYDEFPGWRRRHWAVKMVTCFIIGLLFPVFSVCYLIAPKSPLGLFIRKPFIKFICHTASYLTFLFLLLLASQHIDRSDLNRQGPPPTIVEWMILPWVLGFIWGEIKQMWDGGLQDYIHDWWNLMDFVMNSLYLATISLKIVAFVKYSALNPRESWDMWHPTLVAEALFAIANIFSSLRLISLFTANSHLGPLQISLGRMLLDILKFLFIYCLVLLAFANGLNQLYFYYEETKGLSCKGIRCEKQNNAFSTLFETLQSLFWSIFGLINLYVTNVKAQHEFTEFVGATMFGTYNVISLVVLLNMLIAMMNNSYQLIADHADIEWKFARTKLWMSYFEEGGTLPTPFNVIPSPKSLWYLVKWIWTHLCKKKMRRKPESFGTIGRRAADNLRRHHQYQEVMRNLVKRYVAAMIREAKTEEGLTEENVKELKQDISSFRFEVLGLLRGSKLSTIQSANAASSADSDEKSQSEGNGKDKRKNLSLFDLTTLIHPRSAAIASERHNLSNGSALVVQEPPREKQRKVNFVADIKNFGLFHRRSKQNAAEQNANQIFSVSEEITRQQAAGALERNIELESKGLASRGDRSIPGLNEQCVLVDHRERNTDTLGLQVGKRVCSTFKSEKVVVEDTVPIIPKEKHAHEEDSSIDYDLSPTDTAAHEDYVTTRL

[21] = microbe, parasite or virus in culture; type: functional; conditions: Mycobacterium tuberculosis
cells [22] = type: functional, cell-based
[23] = target: Acyl-homoserine lactone acylase PvdQ (Pseudomonas aeruginosa (strain LESB58), UniProt Q9I194); test: P. aeruginosa PvdQ acylase inhibitors, dose response, biochemical, fluorescence, plate reader and imaging, cherry-picks (AID 493231)
cells [24] = type: functional, cell-based; remark: listed apart in the source
Wee1-like protein kinase = Wee1-like protein kinase (Homo sapiens, UniProt P30291); test: G2/M cell cycle arrest in HeLa, late-stage follow-up, mechanism study for Wee1 degradation inhibitor project, FACS, panel member Wee1 Degradation (AID 2088)
Wee1-like protein kinase, sequence (P30291 whole entry): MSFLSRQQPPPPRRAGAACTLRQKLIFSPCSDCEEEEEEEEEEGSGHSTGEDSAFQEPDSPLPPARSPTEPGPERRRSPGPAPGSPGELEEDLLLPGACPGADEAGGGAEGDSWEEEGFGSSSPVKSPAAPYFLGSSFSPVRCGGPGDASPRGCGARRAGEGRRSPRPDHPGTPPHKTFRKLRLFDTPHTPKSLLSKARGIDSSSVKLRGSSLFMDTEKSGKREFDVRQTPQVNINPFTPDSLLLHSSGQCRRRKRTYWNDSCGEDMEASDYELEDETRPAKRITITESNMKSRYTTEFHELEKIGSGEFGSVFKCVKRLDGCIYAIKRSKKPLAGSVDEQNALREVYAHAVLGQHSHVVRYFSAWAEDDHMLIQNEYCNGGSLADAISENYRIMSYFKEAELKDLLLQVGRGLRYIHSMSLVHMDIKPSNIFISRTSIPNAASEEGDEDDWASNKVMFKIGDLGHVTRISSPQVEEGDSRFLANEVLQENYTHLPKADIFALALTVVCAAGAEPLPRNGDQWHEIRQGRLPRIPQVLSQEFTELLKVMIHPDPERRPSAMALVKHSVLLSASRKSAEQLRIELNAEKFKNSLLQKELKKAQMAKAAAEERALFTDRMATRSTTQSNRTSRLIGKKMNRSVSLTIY

[25] = target: G2/mitotic-specific cyclin-B1 (Homo sapiens, UniProt P14635); test: G2/M cell cycle arrest in HeLa, late-stage follow-up, mechanism study for Wee1 degradation inhibitor project, FACS, panel member Cyclin B Degradation (AID 2088)
[26] = target: T3, Voltage-gated N-type calcium channel alpha-1B subunit/Amyloid beta A4 precursor protein-binding family A member 1 (Homo sapiens, UniProt Q00975+Q02410); test: disruptors of Mint-PDZ/N-type channel peptide interaction – biochemical, HTRF, SAR follow-up (AID 2489); type: functional
SUMO E1/E2 = SUMO E1/E2 (Homo sapiens, UniProt P63279+Q9UBE0+Q9UBT2); test: SAR analysis of SUMOylation using HTRF in an in-Vitro dose response assay. [Related pubchem assays (depositor defined):AID2006, AID2011, AID2018, AID2069, AID2658]; type: functional
[27] = target: T3, Voltage-gated N-type calcium channel alpha-1B subunit/Amyloid beta A4 precursor protein-binding family A member 1; test: disruptors of Mint-PDZ/N-type channel peptide interaction – biochemical, HTRF, set 2, SAR follow-up (AID 434980); type: functional
[28] = system: Streptococcus sp. 'group A'; test: growth inhibition of control SK(-) GAS strain, dose response, counter-screen for streptokinase expression inhibitor project, luminescence, kanamycin, BacTiterGlo, confirmation (AID 1900); type: functional, organism-based
Streptococcus = test: Group A Streptococcus viability loss, dose response, counter-screen for streptokinase expression inhibitor project, luminescence, BacTiterGlo (AID 1915); type: functional, organism-based;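 further: potency for reduction of bacterial viability or growth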

CN(C)c1ccc(/C=c2\c3cc([N+](=O)[O-])ccc3n3c2cc(-c2ccccc2)[n+]3C)cc1
AC50 [1]: 14.6 µM (active)
IC50 [2]: 6.13 µM (active)
IC50 [3]: 5.79 µM (active)
AC50 [4]: 5.6 µM (active)
IC50 [5]: 28.3 µM (inactive)
CC50 (Vero): 34.8 µM (active)
AC50 [6]: 3.3 µM (active)
CC50 [7]: 1.48 µM (active)
IC50 (Genome polyprotein): 11.8 µM (active)
IC50 (Nonstructural protein 1): 4.31 µM (active)
IC50 (Beta-galactosidase): > 66.6 µM (inactive)
IC50 [8]: 31.9 µM (inactive)

Oc1ccc(-c2n[nH]cc2-c2nc3ccccc3s2)c(O)c1
IC50 [9]: > 35 µM (not active)
IC50 [10]: > 35 µM (not active)

O=C(O)c1ccc(N(c2ccccc2)c2ccccc2)cc1
IC50 [9]: > 35 µM (not active)
IC50 (Genome polyprotein): 60.3 µM (active)
IC50 [10]: 31.9 µM (not active)

N=c1ccn(Cc2ccc(Cl)cc2)cc1
AC50 (HeLa): 16.4 µM (active)

O=C(CCCc1ccccc1)c1ccc2c(c1)OCCO2
IC50 [11]: > 39.8 µM (not active)
EC50 [12]: < 0.2 µM (active)
EC50 (HT-1080): > 50 µM (not active)
EC50 [13]: < 0.16 µM (active)

Cc1cc(C(=O)CSc2nnnn2C(C)(C)C)c(C)n1Cc1ccccc1
EC50 [14]: > 30 µM (not active)

Cc1c(C(=O)NC2=NCCS2)oc2ccccc12
EC50 [12]: 2.67 µM (active)
EC50 (HT-1080): > 50 µM (not active)

COc1cc(-c2nc3c(c(C)nn3-c3ccccc3)c3cc(OC)c(OC)cc23)ccc1O
Absolute IC50 (XBP1) (X-box-binding protein 1): 10 µM

COc1nc(Nc2nc(O)c3ccccc3n2)nc2ccc(C)cc12
EC50 [15]: 2.3 µM (active)
AC50 (INS1): 1.31 µM (active)
EC50 (BJ [16]): 2.88 µM (inconclusive)
CC50 [17]: 3.83 µM (active)
EC50 (BJ [18]): 2.6 µM (active)
EC50 (BJ [19]): 2.93 µM (active)

CC(=O)c1cccc(OCC(=O)c2cc(C)n(Cc3ccccc3)c2C)c1
EC50 [14]: > 30 µM (not active)

Cc1ccc(-c2[nH]c3ccccc3c2SCCN)cc1
EC50 [20]: 4.73 µM (active)

Cc1ccc(C2CN(C)C3(C(=O)Nc4ccccc43)C23COc2ccccc2C3=O)cc1 (centres undefined)
CC50 [21]: > 40 µM (active)
Absolute IC50 (XBP1) (X-box-binding protein 1): 10 µM

CCOC(=O)N1CCN(c2ccc(Cl)c(Cl)c2)CC1
EC50 (cells [22]): > 350 µM (not active)
AC50 [23]: 25.5 µM (active)
EC50 (cells [24]): > 350 µM (not active)

Nc1ccc(OCc2ccccc2)cc1[N+](=O)[O-]
AC50 [23]: 12.5 µM (active)
IC50 (Nonstructural protein 1): 58.3 µM (active)

Cc1cccc(NC(=O)COc2cc(=O)n(C)c3ccccc23)n1
EC50 (Wee1-like protein kinase): > 49.7 µM (inactive)
EC50 [25]: > 49.7 µM (inactive)

C=CC[C@@H](CC(=O)N(CCO)Cc1ccccc1)C(=O)NC[C@H](OC(=O)[C@@H](CC=C)CC(=O)OC(C)(C)C)c1ccccc1
AC50 (HeLa): 57.2 µM (active)

CCc1ccccc1NC(=O)CCCOc1cc(=O)n(C)c2ccccc12
EC50 (Wee1-like protein kinase): > 49.7 µM (inactive)
EC50 [25]: > 49.7 µM (inactive)

COc1ccc(CNC(=O)CCOC(=O)c2cc(-c3ccco3)nc3ccccc23)cc1
IC50 [26]: 20.8 µM (active)
IC50 (SUMO E1/E2): 29.6 µM (active)
IC50 [27]: 14.4 µM (active)

CN(C)c1nc(N/N=C/c2ccccc2O)nc(Nc2ccc(F)cc2)n1
AC50 (INS1): 3.59 µM (active)
EC50 [28]: 3.62 µM (active)
EC50 (Streptococcus): 5.81 µM (active)
IC50 (Beta-galactosidase): > 66.6 µM (inactive)
IC50 [8]: > 66.6 µM (inactive)
